Measurements from article PMC7279355, “Preparation of Biphenyl-Conjugated Bromotyrosine for Inhibition of PD-1/PD-L1 Immune Checkpoint Interactions” (International Journal of Molecular Sciences, 2020).
Numbered stars: 1 amine (or outer) side, 2 acyl side, 3 side chain; on linkers, the order of the positions; unused ones are H or OH. Square brackets hold non-standard residues; d marks the D form. Peptide text beside a SMILES is read from it. X1 = Cc1c(COc2ccc(C[C@H](N[*:1])C(=O)[*:2])cc2Br)cccc1-c1ccccc1

Target: T1, PD-1/PD-L1 interaction (Homo sapiens, UniProt Q9NZQ7)
T1 construct: purchased PerkinElmer AL356 HV/C/F
T1 sequence (Q9NZQ7 19-238 limits assumed): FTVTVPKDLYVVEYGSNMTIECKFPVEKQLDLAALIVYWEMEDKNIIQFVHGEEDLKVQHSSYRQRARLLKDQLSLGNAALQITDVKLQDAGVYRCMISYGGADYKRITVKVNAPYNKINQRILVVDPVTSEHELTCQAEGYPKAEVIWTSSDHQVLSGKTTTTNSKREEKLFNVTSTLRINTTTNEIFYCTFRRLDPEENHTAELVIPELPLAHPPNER
Assay: AlphaLISA amplified luminescence proximity homogeneous assay, inhibition of PD-1/PD-L1 binding
Details: for IC50: AlphaLISA

[1] = His-tagged PD-L1 and biotin-conjugated PD-1, 25 °C, 90 min

Text: To evaluate the binding affinities of the compounds for PD-L1, we used the amplified luminescence proximity homogeneous assay (Alpha) by using the AlphaLISA® assay kit [38]. This assay is based on photoinduced energy transfer between donor and acceptor beads conjugated to PD-1 and PD-L1, respectively (Figure S6).
In this assay, direct binding of an inhibitor to PD-L1 is detected by photoinduced energy transfer (Figure S6). Biotin-conjugated PD-1 is attached to streptavidin-coated donor beads and histidine (His)-tagged PD-L1 is attached to anti-His-conjugated acceptor beads. Photoexcitation of the donor beads at 680 nm yields singlet oxygen.
Positive and negative technical controls were included in parallel. Positive controls contained buffer (2 μL) in place of solution 1–10, and negative controls contained only the beads (2 μL each) and buffer (6 μL).
The reaction samples (10 μM) were placed in a 384-well microplate and photoirradiated at 680 nm from the top. […] IC50 values were estimated from a sigmoidal curve of fluorescence intensity vs. inhibitor concentration using a relative weighting method (1/Y^2 weighting) with GraphPad Prism 8 (GraphPad Software Inc., San Diego, CA, USA).

Row | Molecule | IC50 [1] [µM] | improvement of IC50 relative to BMS-8 (X (1.5 μM) vs BMS-8 ([…])) | IC50 (positive control) [µM]
1 | CC(C)(C)OC(=O)[C@H](Cc1ccc(O)c(Br)c1)NC(=O)OCC1c2ccccc2-c2ccccc21 [Compound4, (S)-tert-Butyl 2-({[(9H-fluoren-9-yl)methoxy]carbonyl}amino)-3-(3-bromo-4-hydroxyphenyl)propanoate] | 1060 | – | –
2 | Cc1c(COc2ccc(C[C@H](NC(=O)OCC3c4ccccc4-c4ccccc43)C(=O)OC(C)(C)C)cc2Br)cccc1-c1ccccc1 [Compound5, (S)-tert-Butyl 2-({[(9H-fluoren-9-yl)methoxy]carbonyl}amino)-3-{3-bromo-4-[(2-methyl-1,1’-biphenyl-3-yl)methoxy]phenyl}propanoate] | 897 | – | –
3 | CSCC[C@H](NC(=O)[C@H](CCCCN)NC(=O)[C@H](CC(N)=O)NC(=O)[C@H](Cc1ccc(OCc2cccc(-c3ccccc3)c2C)c(Br)c1)NC(=O)[C@H](CCCNC(=N)N)NC(=O)[C@H](CCC(=O)O)NC(=O)[C@@H](N)CS)C(=O)O [CERXNKM] (H-CER[X1]NKM-OH) | 308 | – | –
4 | Cc1c(COc2ccc(C[C@H](N)C(=O)N[C@@H](Cc3c[nH]c4ccccc34)C(=O)O)cc2Br)cccc1-c1ccccc1 [XW] | 845 | – | –
5 | Cc1c(CO)cccc1-c1ccccc1 [Compound1, 3-hydroxymethyl-2-methylbiphenyl] | 309 | – | –
6 | Cc1c(COc2ccc(C[C@H](NC(=O)[C@@H](N)CCCNC(=N)N)C(=O)N[C@@H](CC(N)=O)C(=O)O)cc2Br)cccc1-c1ccccc1 [RXN] | 405 | – | –
7 | Cc1c(COc2ccc(C[C@H](N)C(=O)O)cc2Br)cccc1-c1ccccc1 [X, (S)-2-amino-3-[3-bromo-4-{(2-methyl-1,1′-biphenyl-3-yl)methoxy}phenyl]propanoic acid] | 1.5 | about five | –
8 | Cc1c(COc2ccc(C[C@H](NC(=O)CN)C(=O)O)cc2Br)cccc1-c1ccccc1 [GX] | 448 | – | –
9 | CC[C@H](C)[C@H](NC(=O)[C@H](CC(N)=O)NC(=O)[C@H](CC(N)=O)NC(=O)[C@H](Cc1ccc(OCc2cccc(-c3ccccc3)c2C)c(Br)c1)NC(=O)[C@H](CCCNC(=N)N)NC(=O)[C@H](Cc1c[nH]c2ccccc12)NC(=O)[C@@H](N)Cc1ccccc1)C(=O)O [FWRXNNI] (H-FWR[X1]NNI-OH) | 312 | – | –
10 | nivolumab: anti-PD-1 mAb, positive control [reference compound] | – | – | 0.0051
11 | Cc1c(COc2ccc(C[C@H](N)C(=O)N[C@@H](CO)C(=O)O)cc2Br)cccc1-c1ccccc1 [XS] | 2650 | – | –
12 | Cc1c(COc2ccc(C[C@H](NC(=O)OCC3c4ccccc4-c4ccccc43)C(=O)O)cc2Br)cccc1-c1ccccc1 [Compound6, (S)-2-({[(9H-fluoren-9-yl)methoxy]carbonyl}amino)-3-{3-bromo-4-[(2-methyl-1,1’-biphenyl-3-yl)methoxy]phenyl}propanoic acid] | 1420 | – | –
13 | Cc1c(COc2ccc(C[C@H](N)C(=O)NCC(=O)NCC(=O)O)cc2Br)cccc1-c1ccccc1 [XGG] | 6510 | – | –
14 | Cc1c(COc2ccc(C[C@H](NC(=O)[C@@H](N)Cc3c[nH]c4ccccc34)C(=O)NCC(=O)O)cc2Br)cccc1-c1ccccc1 [WXG] | 405 | – | –
15 | Cc1c(COc2ccc(C[C@H](N)C(=O)NCC(=O)O)cc2Br)cccc1-c1ccccc1 [XG] | 2.1 | – | –
16 | Cc1c(COc2ccc(C[C@H](N)C(=O)N[C@@H](C)C(=O)O)cc2Br)cccc1-c1ccccc1 [XA] | 22.3 | – | –
